Data published in US10173968B2, “Bishydrazone-based antifungal agents” (University of Kentucky Research Foundation, priority 2016, dated 2019).

What was measured:
[1] = Mammalian cell cytotoxicity, resazurin; assay type: cell-based; conditions: human
Method: Another important aspect to consider during the development of antimicrobial agents is their potential toxicity towards mammalian cells. Having established the potent antimicrobial activities of the bis(N-amidino)hydrazones and N-amidino-N′-aryl-bishydrazones against bacteria and fungi, the toxicity profile of these compounds was determined against two mammalian cell lines (A549 and BEAS-2B; FIGS. 4A-B). […]. Cytotoxicity assays were performed as previously described. The human lung carcinoma epithelial cells A549 and the normal human bronchial epithelial cells BEAS-2B were grown in F12-K and DMEM medium containing 10% fetal bovine serum (FBS) and 1% antibiotics, respectively. The confluent cells were trypsinized with 0.05%-trypsin-0.53 mM EDTA, centrifuged (1,200 rpm) and resuspended in fresh medium (F12-K or DMEM). The cells were seeded into 96-well microtiter plates at a density of 3,000 cells/well and were grown overnight. […] Triton X-100® (0.5%, v/v) gave complete loss of cell viability and was used as the positive control. The percent cell survival was calculated as: (test value/control value)×100, where control value represents cells+resazurin−drug, and test value represents cells+resazurin+drug.

[2] = test system: all bacterial strains tested; assay: Antibacterial MIC, summary over the panel; assay type: cell-based; conditions: read-out: antibacterial MIC values
In short: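 Step one: single-point test of each compound at 500 μM. Step two: MIC determination across doubling dilutions.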

[3] = test system: L. monocytogenes ATCC 19115 (strain B); assay type: cell-based, Listeria monocytogenes; conditions: up to 15 passages
Method: (§1) The bacteria were grown in MH broth at 37° C. for these experiments. […] The resulting cultures were diluted 1:1000 and grown until the culture reached ˜300,000 cfu/mL. That culture was then further diluted 1:1000 and used to determine the next round of MIC values.

[4] = test system: MRSA (strain C); assay type: cell-based, Staphylococcus aureus; conditions: up to 15 passages
Method: as §1

[5] = test system: VRE (strain D); assay type: cell-based, enterococcus; conditions: up to 15 passages
Method: as §1

[6] = test system: P. aeruginosa ATCC 27853 (strain I); assay type: cell-based; conditions: up to 15 passages
Method: as §1

[7] = test system: C. albicans ATCC 10231; assay type: cell-based, Candida albicans; conditions: repeated treatments with sub-MIC drug concentrations
[8] = test system: C. albicans ATCC 10231; assay: Intracellular ROS production, DCFH-DA fluorescence assay; assay type: cell-based, Candida albicans; conditions: at 1× and 2× MIC values, 1 h at 35° C.
Text: We used the 2′,7′-dichlorodihydrofluorescein diacetate (DCFH-DA) dye as a probe to measure the production of ROS in yeast cells upon treatment with our compounds. DCFH-DA can easily cross the cell membranes and be hydrolyzed by cellular esterases to the non-fluorescent 2′,7′-dichlorodihydrofluorescein (DCFH), which can further be oxidized to the highly fluorescent 2′,7′-dichlorofluorescein (DCF) by the intracellular ROS. Five mL of RPMI 1640 medium were inoculated using a single colony of C. albicans ATCC 10231 (strain A) in a Falcon tube and grown overnight at 35° C. at 200 rpm. The overnight culture was diluted by adding 200 μL of yeast cells to 800 μL of the same medium. […] H2O2 at 1 mM was also used as a positive control. Cells were centrifuged and washed twice with PBS buffer (pH 7.2). Cells were resuspended in the same buffer and incubated with DCFH-DA (20 μg/mL) for 30 min in the dark. Afterwards, cells were centrifuged and washed with PBS buffer to remove excess DCFH-DA. Glass slides with 10-15 μL of each mixture were prepared and observed in bright field and fluorescence modes (FITC filter set, excitation and emission wavelengths of 488 and 512 nm, respectively) using a Zeiss Axovert 200M fluorescence microscope (FIG. 3).

[9] = target: hERG channel (Homo sapiens, UniProt Q12809); assay: in vitro; conditions: pH 7.4
Chain of hERG channel (Q12809 whole entry): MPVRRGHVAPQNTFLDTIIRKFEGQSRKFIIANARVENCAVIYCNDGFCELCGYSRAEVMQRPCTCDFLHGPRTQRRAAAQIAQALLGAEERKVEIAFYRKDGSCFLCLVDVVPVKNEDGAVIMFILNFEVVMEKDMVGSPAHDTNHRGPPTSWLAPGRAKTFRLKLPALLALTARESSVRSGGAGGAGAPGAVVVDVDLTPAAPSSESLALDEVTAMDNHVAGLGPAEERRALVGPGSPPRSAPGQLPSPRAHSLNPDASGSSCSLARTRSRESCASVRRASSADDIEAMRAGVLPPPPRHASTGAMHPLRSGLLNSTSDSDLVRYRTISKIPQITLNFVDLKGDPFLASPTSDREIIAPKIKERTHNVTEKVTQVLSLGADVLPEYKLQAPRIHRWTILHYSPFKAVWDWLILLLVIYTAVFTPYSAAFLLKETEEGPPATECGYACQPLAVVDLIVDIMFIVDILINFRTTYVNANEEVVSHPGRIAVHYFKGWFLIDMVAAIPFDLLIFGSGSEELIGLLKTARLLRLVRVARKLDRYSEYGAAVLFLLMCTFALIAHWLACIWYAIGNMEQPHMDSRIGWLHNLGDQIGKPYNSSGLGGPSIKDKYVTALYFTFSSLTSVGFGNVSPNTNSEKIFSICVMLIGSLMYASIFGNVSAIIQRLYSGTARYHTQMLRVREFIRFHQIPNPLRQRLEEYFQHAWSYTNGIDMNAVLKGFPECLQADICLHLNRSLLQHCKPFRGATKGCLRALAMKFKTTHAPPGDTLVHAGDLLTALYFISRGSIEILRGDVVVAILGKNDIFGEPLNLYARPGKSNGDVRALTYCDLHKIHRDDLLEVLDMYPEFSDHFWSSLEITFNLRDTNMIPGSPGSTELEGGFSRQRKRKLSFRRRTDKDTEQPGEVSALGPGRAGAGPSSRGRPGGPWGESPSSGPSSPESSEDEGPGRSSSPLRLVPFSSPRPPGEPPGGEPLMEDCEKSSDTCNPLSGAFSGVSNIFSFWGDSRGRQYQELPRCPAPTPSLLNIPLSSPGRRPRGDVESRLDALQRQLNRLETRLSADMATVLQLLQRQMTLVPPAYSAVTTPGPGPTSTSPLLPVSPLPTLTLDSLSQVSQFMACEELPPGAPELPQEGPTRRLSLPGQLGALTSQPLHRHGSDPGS
Method: Assays were conducted in duplicate, and three independent assays were performed for each compound that was evaluated. Cell membrane suspension (5 μg) was added to duplicate tubes containing assay buffer (50 mM Tris, 10 mM KCl, and 1 mM MgCl2, pH 7.4), 25 μL of a single concentration of analogue (a concentration range of 10 nM-100 μM was employed for each experiment), and 25 μL of [^3H]dofetilide (5 nM, final concentration) for an assay volume of 250 μL. Nonspecific binding was assessed in the presence of 1 mM amitriptyline. Binding occurred for 60 min at 25° C. and was terminated by rapid filtration through Whatman GF/B filters, which were pre-soaked in 0.5% PEI for 2 h. Filters were washed three times with ˜1 mL of ice-cold assay buffer. Radioactivity retained by the filters was determined by liquid scintillation counting by using a Tri-Carb 2100TR liquid scintillation analyzer (PerkinElmer Life and Analytical Sciences, Boston, Mass.).

[10] = A549 lung carcinoma epithelial cells, A549, 24 h
[11] = BEAS-2B normal bronchial epithelial cells

Structure (SMILES) | IC50 at 24 h [1, 10] [µg/mL] | IC50 at 24 h [1, 11] [µg/mL] | MIC [2] [µg/mL] | melting point [°C] | development of resistance (passages after which resistance developed) [3] | development of resistance (passages after which resistance developed) [4] | development of resistance (passages after which resistance developed) [5] | development of resistance (passages after which resistance developed) [6] | development of drug resistance [7] | intracellular ROS production [8] | IC50 at 60 min [9] [nM]
Cl.N=C(N)N/N=C/c1ccc(-c2ccc(/C=N/Nc3ccc(F)cc3F)cc2)cc1 [Compound 7Af, (E)-2-((4′-((E)-(2-(2,4-Difluorophenyl)hydrazono)methyl)-[1,1′-biphenyl]-4-yl)methylene) hydrazine-1-carboximidamide, monohydrochloride] | 7.8 to 15.6 | 7.8 to 15.6 | 0.4 to 3.3 | > 380 | – | – | – | – | – | – | –
Cl.N=C(N)N/N=C/c1ccc(-c2ccc(/C=N/Nc3ccc(Cl)cc3)cc2)cc1 [Compound 7Ad, (E)-2-((4′-((E)-(2-(4-Chlorophenyl)hydrazono)methyl)-[1,1′-biphenyl]-4-yl)methylene)hydrazine-1-carboximidamide monohydrochloride] | 7.8 to 15.6 | 7.8 to 15.6 | 0.4 to 3.3 | > 380 | – | – | – | – | – | – | –
Cl.Cl.N=C(N)N/N=C/c1ccc(-c2cccc(/C=N/NC(=N)N)c2)cc1 [Compound 3B, (2E,2′E)-2,2′-([1,1′-Biphenyl]-3,4′-diylbis(methanylylidene))bis(hydrazine-1-carboximidamide) dihydrochloride] | 7.8 to 15.6 | 7.8 to 15.6 | 0.4 to 3.3 | – | – | – | – | – | – | – | –
Cl.N=C(N)N/N=C/c1ccc(-c2ccc(C=NNc3ccccc3Cl)cc2)cc1 (mixture of isomers) [Compound 7Aa, E)-2-((4′-((E and Z)-(2-(2-Chlorophenyl)hydrazono)methyl)-[1,1′-biphenyl]-4-yl)methylene)hydrazine-1-carboximidamide monohydrochloride] | – | – | – | – | did not develop resistance | twelve | did not develop resistance | twelve | unable to develop drug resistance | significantly increased intracellular ROS production | 1140 ± 267
